Source: ChEMBL document CHEMBL3797203, “Plasmin inhibitors with hydrophobic amino acid-based linker between hydantoin moiety and benzimidazole scaffold enhance inhibitory activity” (Bioorg Med Chem Lett, 2016)

Assays:
[1] = molecular target: Urokinase-type plasminogen activator (Homo sapiens, UniProt P00749); test: Inhibition of human urokinase using Pyr-Gly-Arg-MCA as substrate by fluorescence assay
[2] = molecular target: Plasminogen (Homo sapiens, UniProt P00747); test: Inhibition of human plasmin using Boc-Val-Leu-Lys-MCA as substrate by fluorescence assay
[3] = species: Homo sapiens; test: Selectivity ratio of IC50 for human urokinase to IC50 for human plasmin

Chain of Plasminogen (P00747 97-580 limits assumed): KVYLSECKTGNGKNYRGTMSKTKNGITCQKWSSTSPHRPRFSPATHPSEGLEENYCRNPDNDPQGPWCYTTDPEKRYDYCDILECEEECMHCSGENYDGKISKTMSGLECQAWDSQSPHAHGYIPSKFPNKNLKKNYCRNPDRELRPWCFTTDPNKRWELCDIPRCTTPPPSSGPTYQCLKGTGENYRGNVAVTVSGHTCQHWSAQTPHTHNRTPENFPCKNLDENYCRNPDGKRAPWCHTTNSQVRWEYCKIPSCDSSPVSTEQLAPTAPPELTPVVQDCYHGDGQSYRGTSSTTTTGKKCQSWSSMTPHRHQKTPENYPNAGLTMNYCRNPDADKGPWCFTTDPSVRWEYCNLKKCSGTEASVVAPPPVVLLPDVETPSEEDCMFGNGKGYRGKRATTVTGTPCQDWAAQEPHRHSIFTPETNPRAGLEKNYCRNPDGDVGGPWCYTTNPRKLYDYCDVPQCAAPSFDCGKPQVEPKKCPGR
Chain of Plasminogen (P00747 581-810 limits assumed): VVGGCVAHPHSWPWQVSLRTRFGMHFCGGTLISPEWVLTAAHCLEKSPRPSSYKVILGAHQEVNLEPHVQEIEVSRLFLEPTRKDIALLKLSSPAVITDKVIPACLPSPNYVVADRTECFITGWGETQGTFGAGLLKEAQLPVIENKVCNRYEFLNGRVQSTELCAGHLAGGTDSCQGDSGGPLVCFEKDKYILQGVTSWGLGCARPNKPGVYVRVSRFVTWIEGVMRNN

| IC50 [1] [µM] | IC50 [2] [µM] | Ratio IC50 [3] | Structure (SMILES) |
| --- | --- | --- | --- |
| > 200 | 11 |  | C[C@@H](c1nc2ccc(C(=O)N[C@H](C#N)CCCCN)cc2n1C)N1C(=O)CN(c2ccc(Oc3ccccc3)cc2)C1=O |
| > 200 | 28 |  | CC(C)[C@@H](c1nc2ccc(C(=O)N[C@H](C#N)CCCCN)cc2n1C)N1C(=O)CN(c2ccc(Oc3ccccc3)cc2)C1=O |
| > 200 | 45 |  | C[C@H](c1nc2ccc(C(=O)N[C@H](C#N)CCCCN)cc2n1C)N1C(=O)CN(c2ccc(F)cc2)C1=O |
| > 200 | 4.9 | 40 | CC(C)[C@H](c1nc2ccc(C(=O)N[C@H](C#N)CCCCN)cc2n1C)N1C(=O)CN(c2ccc(Oc3ccccc3)cc2)C1=O |
| > 200 | 25 |  | C[C@@H](c1nc2ccc(C(=O)N[C@H](C#N)CCCCN)cc2n1C)N1C(=O)CN(c2ccc(F)cc2)C1=O |
| 160 | 19 |  | C[C@H](c1nc2ccc(C(=O)N[C@H](C#N)CCCCN)cc2n1C)N1C(=O)CN(c2ccc(Oc3ccccc3)cc2)C1=O |
| 150 | 7.7 |  | CC(C)C[C@H](c1nc2ccc(C(=O)N[C@H](C#N)CCCCN)cc2n1C)N1C(=O)CN(c2ccc(Oc3ccccc3)cc2)C1=O |
| > 200 | 6.7 |  | CC[C@@H](C)[C@H](c1nc2ccc(C(=O)N[C@H](C#N)CCCCN)cc2n1C)N1C(=O)CN(c2ccc(Oc3ccccc3)cc2)C1=O |
| > 200 | 19 |  | C[C@@H](c1nc2ccc(C(=O)N[C@H](C#N)CCCCN)cc2n1C)N1C(=O)CN(c2ccc(Oc3ccncc3)cc2)C1=O |
| > 200 | 12 |  | C[C@H](c1nc2ccc(C(=O)N[C@H](C#N)CCCCN)cc2n1C)N1C(=O)CN(c2ccc(Oc3ccncc3)cc2)C1=O |
| > 200 |  |  | Cn1c(CN2C(=O)CN(c3ccc(F)cc3)C2=O)nc2ccc(C(=O)N[C@H](C#N)CCCCN)cc21 |
